The results in this text go back to US8278316B2, “Aza pyridone analogs useful as melanin concentrating hormone receptor-1 antagonists” (Bristol-Myers Squibb Company, priority 2009, dated 2012).

The target of this assay is T1, human melanin concentrating hormone receptor (MCHR1) (Homo sapiens, UniProt Q99705, A5T/E4Q).
T1 construct: expressed in transfected cells; host or cells: HEK-293 (stably transfected), membranes
Put plainly: Radioligand binding assay for assessment of MCHR1 activity. The following applies: membranes from HEK-293 cells expressing mutated (E4Q, AST) hMCHR1; competition with 0.06-0.1 nM [Phe13,[125I]Tyr19]-MCH, 90 min. How it is done:
Compounds of Formula I were initially characterized in an in vitro binding assay to determine their Ki or ability to antagonize binding of a peptide agonist to the human melanin concentrating hormone receptor (MCHR1).
Membranes from stably transfected HEK-293 cells expressing a mutated (E4Q, AST) hMCHR1 receptor were prepared by dounce homogenization and differential centrifugation. Binding experiments were carried out with 0.5-1.0 ug of membrane protein incubated in a total of 0.2 ml in 25 mM HEPES (pH 7.4) with 10 mM MgCl2, 2 mM EGTA, and 0.1% BSA (Binding Buffer) for 90 min. For competition binding assays, reactions were carried out in the presence of with 0.06-0.1 nM [Phe^13, [^125I]Tyr^19]-MCH and increasing concentrations of unlabeled test molecules. Reactions were terminated by rapid vacuum filtration over 96 well-GFC Unifilter plates pre-coated with 0.075 ml binding buffer containing 1% BSA, and washed 3 times with 0.4 ml of Phospho-buffered Saline (pH 7.4) containing 0.01% TX-100. Filters were dried; 0.05 ml microscint 20 was added to each well and radioactivity was subsequently quantified by scintillation counting on a TOPCOUNT® microplate scintillation counter (Packard). Inhibitory constants were determined by nonlinear least squares analysis using a four parameter logistic equation.

T1 sequence (Q99705 whole entry E4Q/A5T): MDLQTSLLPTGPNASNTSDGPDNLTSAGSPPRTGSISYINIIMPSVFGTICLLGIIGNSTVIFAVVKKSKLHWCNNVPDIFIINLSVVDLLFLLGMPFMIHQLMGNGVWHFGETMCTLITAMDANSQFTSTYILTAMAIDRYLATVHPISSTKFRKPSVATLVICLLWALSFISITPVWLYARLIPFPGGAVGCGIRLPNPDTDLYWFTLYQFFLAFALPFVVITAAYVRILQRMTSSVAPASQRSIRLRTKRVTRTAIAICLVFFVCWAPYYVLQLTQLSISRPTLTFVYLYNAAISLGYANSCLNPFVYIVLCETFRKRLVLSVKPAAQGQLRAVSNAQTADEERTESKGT

The Ki is the equilibrium dissociation constant of an inhibitor or competing ligand from its target. Consider `COc1cc(-n2ccc(SCc3ccc(Cl)cc3)nc2=O)ccc1OCC(C)(C)O` [Example A1, 4-(4-Chlorobenzylthio)-1-(4-(2-hydroxy-2-methylpropoxy)-3-methoxyphenyl)pyrimidin-2(1H)-one], for which the Ki was 41 nM.

`COc1cc(-n2ccc(OCc3ccc(Cl)c(Cl)c3)nc2=O)ccc1OCC(C)(C)O` [Example A13]: the Ki is 1150 nM.

`Cc1cc(-n2ccc(NCc3ccc(Cl)cc3)nc2=O)ccc1OCC(C)(C)O` [Example A17] registered a Ki of 458 nM.

In the case of `COc1cc(-n2ccc(C#Cc3ccccc3)nc2=O)ccc1OCC(C)(C)O` [Example B1, 1-(4-(2-Hydroxy-2-methylpropoxy)-3-methoxyphenyl)-4-(phenylethynyl)pyrimidin-2(1H)-one], the affinity corresponds to a Ki of 39 nM. Compared with the last compound, the Ki is about 12-fold lower.

In turn, `COc1cc(-n2ccc(COc3ccccc3F)nc2=O)ccc1OCC(C)(C)O` [Example C5] displayed a Ki of 2200 nM.

On to `COc1cc(-n2ncc(C#Cc3ccccc3)cc2=O)ccc1OCC(O)C1CC1` (stereo not drawn) [Example D2], for which the Ki is 37 nM. Against the preceding compound, the Ki is about 59-fold lower.

Compound `COc1cc(-n2ncc(CSc3ccc(Cl)cc3)cc2=O)ccc1OCC(C)(C)O` [Example E1, 5-((4-Chlorophenylthio)methyl)-2-(4-(2-hydroxy-2-methylpropoxy)-3-methoxyphenyl)pyridazin-3(2H)-one] yielded an inhibition constant (Ki) of 1060 nM.

For the compound `COc1cc(-n2cnc(CSc3ccc(F)cc3)cc2=O)ccc1OCC(C)(C)O` [Example G3], the Ki was 378 nM. Compared with the last compound, the Ki is about 2.8-fold lower.

In the case of `COc1cc(-n2cnc(OCc3ccc(Cl)cc3)cc2=O)ccc1OCC(C)(C)O` [Example H1, 6-(4-Chlorobenzyloxy)-3-(4-(2-hydroxy-2-methylpropoxy)-3-methoxyphenyl)pyrimidin-4(3H)-one], the Ki came out at 35 nM.

`COc1cc(-n2cnc(SCc3ccc(Cl)cc3)cc2=O)ccc1OCC(C)(C)O` [Example H2] had a Ki of 7 nM. Against the preceding compound, the Ki is about 5-fold lower.

`COc1cc(-n2cnc(SCc3ccc(Cl)cc3)cc2=O)ccc1OCC(O)C1CC1` (stereo not drawn) [Example H6]: the inhibition constant Ki stood at 11 nM.

Regarding `COc1cc(-n2cnc(/C=C/c3ccc(Cl)cc3)cc2=O)ccc1OCC(C)(C)O` [Example J1, (E)-6-(4-Chlorostyryl)-3-(4-(2-hydroxy-2-methylpropoxy)-3-methoxyphenyl)pyrimidin-4(3H)-one], the Ki amounted to 23 nM.
